Reference: PMC6180429 (Organic & Biomolecular Chemistry, 2018)

What was measured:
[1] = biological target: T1, PPARγ (peroxisome proliferator-activated receptor γ) (Homo sapiens, UniProt P37231); assay: Gal4-PPARγ-LBD one-hybrid luciferase reporter assay in HEK293 cells (partial agonist); assay type: cell-based
T1 construct: gene PPARG
T1 sequence (P37231 232-505 limits assumed): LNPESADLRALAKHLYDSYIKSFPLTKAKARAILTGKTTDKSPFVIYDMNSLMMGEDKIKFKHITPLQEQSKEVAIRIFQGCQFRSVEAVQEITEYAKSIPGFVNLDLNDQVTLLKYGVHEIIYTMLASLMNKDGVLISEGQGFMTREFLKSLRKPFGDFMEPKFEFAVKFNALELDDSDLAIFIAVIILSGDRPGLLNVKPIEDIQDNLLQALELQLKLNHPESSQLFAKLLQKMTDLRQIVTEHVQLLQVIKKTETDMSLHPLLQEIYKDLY

[2] = biological target: T1, PPARγ (peroxisome proliferator-activated receptor γ); assay: Gal4-PPARγ reporter assay in HEK293 cells, antagonism of […] pioglitazone; assay type: cell-based

Row | EC50 [1] | SMILES | Gal4-PPARγ reporter assay in HEK293 cells, antagonism of 10 μM pioglitazone [2]
1 | 1070 nM | C=CCc1ccc(O)c(-c2cc(CC=C)c(CCC/C=C\Cc3ccc(O)cc3)cc2O)c1 [III, Sesqui magnolol A] | 
2 | 770 nM | C=CCc1ccc(O)c(-c2cc(C/C=C\CCCc3cc(O)ccc3CC=C)ccc2O)c1 [IV, Sesqui magnolol B] | 
3 |  | C=CCc1ccc(O)cc1CCC/C=C\Cc1ccc(O)cc1 [V, Truncated magnolol dimer] | V showed a dose-dependent inhibition of the pioglitazone induced PPARγ-Gal4 activation.
